Measured values taken from ChEMBL document CHEMBL4689842, “EUbOPEN Chemogenomics Library wave 1” (2021).

What was measured:
Format in all cases: toxicity, cell-based
HEK-293T = assay: Incucyte cell viability with HEK293T; conditions: human, 10 µM, compound concentration 10 uM
U2OS = assay: Incucyte cell viability with U2OS; conditions: human, 10 µM, compound concentration 10 uM
Fibroblast = assay: Incucyte cell viability with human fibroblast; conditions: 10 µM, compound concentration 10 uM
[1] = 0 h, replicate number 1, timepoint 0 hours
[2] = 0 h, replicate number 2, timepoint 0 hours
[3] = 6 h, replicate number 1, timepoint 6 hours
[4] = 6 h, replicate number 2, timepoint 6 hours
[5] = 12 h, replicate number 1, timepoint 12 hours
[6] = 12 h, replicate number 2, timepoint 12 hours
[7] = 18 h, replicate number 1, timepoint 18 hours
[8] = 18 h, replicate number 2, timepoint 18 hours
[9] = 24 h, replicate number 1, timepoint 24 hours
[10] = 24 h, replicate number 2, timepoint 24 hours
Also: filed as whole numbers so only -1 and 0 and 1 occur.

Row | SMILES | Growth Rate (HEK-293T; [1]) | Growth Rate (HEK-293T; [2]) | Growth Rate (HEK-293T; [3]) | Growth Rate (HEK-293T; [4]) | Growth Rate (HEK-293T; [5]) | Growth Rate (HEK-293T; [6]) | Growth Rate (HEK-293T; [7]) | Growth Rate (HEK-293T; [9]) | Growth Rate (U2OS; [1]) | Growth Rate (U2OS; [5]) | Growth Rate (U2OS; [6]) | Growth Rate (U2OS; [7]) | Growth Rate (U2OS; [9]) | Growth Rate (Fibroblast; [1]) | Growth Rate (Fibroblast; [3]) | Growth Rate (Fibroblast; [5]) | Growth Rate (Fibroblast; [7]) | Growth Rate (Fibroblast; [9]) | Growth Rate (U2OS; [4]) | Growth Rate (Fibroblast; [10]) | also measured
1 | CCCCc1nc2ccc(NC(=O)NC3CCCCC3)cc2n1Cc1ccc(-c2ccccc2C(=O)O)cc1 | 1 | 0 | 0 | 1 | 0 | 1 | 0 | 0 | 0 | 0 | 1 | 0 | 0 | 0 | 1 | 0 | 1 | 1 | – | – | Growth Rate (HEK-293T; [8]): 1; Growth Rate (U2OS; [3]): 0; Growth Rate (U2OS; [8]): 1; Growth Rate (U2OS; [10]): 1
2 | CN(CCOc1ccc(C[C@H](Nc2ccccc2C(=O)c2ccccc2)C(=O)O)cc1)c1ccccn1.O | 1 | 0 | 0 | 1 | 1 | – | 1 | 1 | 0 | 0 | – | 0 | 1 | 0 | 1 | – | – | 1 | 0 | 0 | Growth Rate (HEK-293T; [10]): 0; Growth Rate (U2OS; [10]): 0; Growth Rate (Fibroblast; [4]): 0; Growth Rate (Fibroblast; [6]): 0; Growth Rate (Fibroblast; [8]): 0
3 | CCOC(=O)c1cc(C#N)c(N2CCC(C(=O)NS(=O)(=O)Cc3ccccc3)CC2)nc1C | 1 | 0 | 0 | 1 | 0 | – | 0 | 0 | – | 0 | 1 | 0 | 0 | 0 | 0 | 0 | 0 | 1 | 0 | 0 | Growth Rate (HEK-293T; [10]): 1; Growth Rate (U2OS; [2]): 1; Growth Rate (U2OS; [3]): 1; Growth Rate (U2OS; [8]): 1; Growth Rate (U2OS; [10]): 1
4 | C=CCN1C[C@H](C)N([C@H](c2ccc(C(=O)N(CC)CC)cc2)c2cccc(O)c2)C[C@H]1C | 1 | 0 | 0 | – | 0 | – | 0 | 0 | 0 | – | 1 | 1 | 1 | 0 | 0 | 0 | 0 | 1 | 1 | 0 | –
5 | Cc1nc(C#Cc2ccnc(Cl)c2)c(C)n1-c1ccc(OC(F)(F)F)cc1 | 0 | – | 0 | – | 0 | – | 0 | 0 | 0 | 1 | – | 1 | 1 | 1 | 1 | 0 | 1 | 1 | – | 0 | Growth Rate (Fibroblast; [2]): 0; Growth Rate (Fibroblast; [4]): 0; Growth Rate (Fibroblast; [8]): 0
6 | Cc1cc(SCc2sc(-c3ccc(C(F)(F)F)c(F)c3)nc2C)ccc1OCC(=O)O | 0 | – | 1 | – | 1 | 0 | 0 | 0 | 0 | 1 | – | 1 | 1 | 0 | 1 | 1 | 1 | 1 | 1 | 0 | Growth Rate (Fibroblast; [6]): 0
7 | O=C(O)CC1CCC2(CC1)CCN(c1cc(OC(F)(F)F)ccc1Cl)CC2 | 0 | – | 1 | – | 0 | 1 | 0 | 0 | 1 | 1 | – | 1 | 1 | 0 | 1 | – | 1 | 1 | 1 | – | Growth Rate (HEK-293T; [8]): 1; Growth Rate (HEK-293T; [10]): 1; Growth Rate (U2OS; [2]): 0
